Measured values published in paper PMC9538480, “Rutin bioconjugates as potential nutraceutical prodrugs: An in vitro and in ovo toxicological screening” (Frontiers in Pharmacology, 2022).

What was measured:
[1] = test system: H9c2(2-1), HaCaT, and HepaRG cells; assay type: cell-based; settings: 100 µM, 24 h
Procedure: To verify the impact of PCs (RUT, OA and LA) and REs (RUT-O and RUT-L) on the morphology and confluence of H9c2(2-1), HaCaT, and HepaRG cells, a microscopic examination was performed. The cells were observed under bright field illumination and photographed at the end of the 24 h treatment period using Cytation 1 (BioTek Instruments Inc., Winooski, VT, United States). The photographs were processed using the Gen5™ Microplate Data Collection and Analysis Software (BioTek Instruments Inc., Winooski, VT, United States).

in vitro [2] = assay type: cell-based, human; settings: human
Procedure: (§1) To evaluate the in vitro effect of rutin esters (REs) on cells’ viability, the MTT technique was applied following a 24 h treatment of H9c2(2-1), HepaRG, and HaCaT cells with RUT-O and RUT-L (1, 10, 25, 50, and 100 µM). The parent compounds (PCs)—RUT, OA, and LA were also tested. DMSO was used as solvent for all test compounds (RUT, OA, LA, RUT-O, and RUT-L). The impact of DMSO at tested concentrations (1, 10, 25, 50, and 100 µM) was also assessed in vitro. At the end of the treatment, fresh media (100 µl) and the MTT reagent (10 µl) were added in each well, and the plates were incubated for 3 h at 37°C. The final steps were as follows: addition of the solubilization solution (100 µl/well), incubation of the plates at room temperature for 30 min, protected from light, and absorbance measurement at two wavelengths (570 and 630 nm) using Cytation 5 (BioTek Instruments Inc., Winooski, VT, United States). The results were expressed as percentage (%) of viable cells normalized to control cells (unstimulated cells).

[3] = test system: trophoblast-like Swan71 cells; design: method as in Shrestha et al., 2019; settings: 24 h of treatment, ref Shrestha et al., 2019; cited from earlier work
H9c2(2-1) cells [4] = assay type: cell-based, rat; settings: 100 µM, 24 h, Hoechst 33342
Procedure: (§2) The potential toxicity of 100 μM RUT, OA, LA, RUT-O, and RUT-L at nuclear level was tested by applying the Hoechst 33342 staining assay protocol according to the manufacturer’s (Thermo Fisher Scientific, Inc., Waltham, MA, United States) recommendations. In brief, H9c2(2-1), HepaRG, and HaCaT cells were seeded in 12-well plates (10^5 cells/1.5 ml/well) and treated with the test compounds for 24 h. After the stimulation period, the media was removed, and the staining solution diluted 1:2000 in PBS was added (500 µl/well). The plates were incubated for 10 min at room temperature, protected from light. Finally, the staining solution was washed with PBS and the pictures were taken using Cytation 1 (BioTek Instruments Inc., Winooski, VT, United States) and analyzed by the means of Gen5™ Microplate Data Collection and Analysis Software (BioTek Instruments Inc., Winooski, VT, United States). Staurosporine (STP) 5 µM was selected as positive control for apoptosis.

chorioallantoic membrane = assay: HET-CAM in ovo irritant potential; assay type: in vivo, Gallus domesticus; settings: 5 min after application
Procedure: To perform a toxicological screening and to verify the irritant potential of the RUT-O and RUT-L were used chicken eggs (Gallus domesticus). Specifically, the eggs were prepared as follows: 1) after being washed and disinfected with 70% ethanol (v/v), the eggs were placed in an incubator in a horizontal posture; 2) on the fourth day of incubation, a small hole was made through which a volume of approximately 7–8 ml of albumen was extracted in order to facilitate the detachment of the chorioallantoic membrane from the inner shell of the egg; 3) on the fifth day of incubation, a window was cut in the upper part of the egg to allow the visualization of the blood vessels, which was then covered with adhesive tape and the eggs were placed in the incubator until the day of the beginning of the experiment. Using the Hen’s Egg Test—Chorioallantoic Membrane (HET-CAM) assay, the potential in ovo toxicity of the samples was evaluated. […] [Kis et al., 2022]). […] In order to observe any vascular effects, a stereomicroscope (Discovery 8 Stereomicroscope Zeiss, Göttingen, and Germany) was used, and images were taken with a Zeiss Axio CAM 105 color camera before and 5 min after the application of the samples. The same experimental protocol was applied for the parent compounds—RUT, OA, and LA.

HUVEC endothelial cells = settings: ref Lu et al., 2010; cited from earlier work
HepaRG cells = assay type: cell-based, human; settings: 100 µM, 24 h, Hoechst 33342
Procedure: as §2

HaCaT cells = assay type: cell-based, human; settings: 100 µM, 24 h, Hoechst 33342
Procedure: as §2

in vitro [5] = assay type: cell-based, rat; settings: rat
Procedure: as §1

H9c2(2-1) cells [6] = assay: in vitro; assay type: cell-based, rat; settings: H9c2(2-1), lowest concentrations (1 and 10 µM), 24 h
Procedure: as §1

HaCaT = test system: HaCaT; design: method as in Carullo et al., 2019; settings: 1 μM; ref Carullo et al., 2019; cited from earlier work

Row | SMILES | round cells floating in the culture medium ([1]; bright field) | impact on cells' adherence or confluency ([1]; compared to control cells) | viability at 24 h, 100 µM (in vitro [2]) [%] | decrease in the viability compared to vehicle control [3] [%] | nuclear morphology changes (H9c2(2-1) cells [4]) | vascular irritation signs (hemorrhage, lysis, coagulation) in words (chorioallantoic membrane) | concentrations suppressing HUVEC endothelial cells growth (HUVEC endothelial cells) | nuclear morphology changes (HepaRG cells) | nuclear morphology changes (HaCaT cells) | viability at 24 h, 50 µM (in vitro [5]) [%] | viability at 24 h, 100 µM (in vitro [5]) [%] | effect on cell viability (H9c2(2-1) cells [6]) | stimulation of HaCaT wound healing (HaCaT)
1 | CCCCC/C=C\C/C=C\CCCCCCCC(=O)O [LA, linoleic acid] | several round cells floating in the culture medium | no negative impact | 86.9 | 10 | no significant nuclear alterations | No signs of vascular irritation | higher than 300 µM | no significant nuclear alterations | no significant nuclear alterations | 87.2 | 84.2 | stimulatory effect | –
2 | CCCCCCCC/C=C\CCCCCCCC(=O)Oc1c(-c2ccc(O)c(O)c2)oc2cc(O)cc(O)c2c1=O [Quercetin-3-oleate] | – | – | – | – | – | – | – | – | – | – | – | – | up to 51%
